{
  "source": "patent US9943528B2",
  "about": "(MAPREG, priority 2016, dated 2018)",
  "key": {"[1]": {"test_system": "80 different CNS neurotransmitters receptors", "assay": "Screen for in vitro affinity to 80 different CNS neurotransmitters receptors", "settings": "80 CNS neurotransmitters receptors, validated binding assays", "source_text": "MAP4343 has been screened for in vitro affinity to 80 different CNS neurotransmitters receptors using various validated binding assays."}, "PC12 cells": {"test_system": "PC12 cells", "settings": "cited from earlier work"}, "Wistar Kyoto (WKY) rats": {"test_system": "Wistar Kyoto (WKY) rats", "assay": "Novel object recognition (NOR) test in WKY rats, chronic administration", "format": "in vivo, rat", "settings": "MAP4343 15 mg/kg, s.c., 24 days", "description": "Wistar Kyoto (WKY) rats are considered as a model of treatment-resistant depression, while Wistar (WI) rats are used as control strain of WKY rats. During this experiment both WI and WKY rats were administered with MAP4343 (15 mg/Kg), subcutaneously (s.c.) for 24 days. Behavioral tests were performed at during the last week of treatment, and rats were finally sacrificed for addressing neurogenesis in Gyrus dentate of hippocampus using histological experiments. Organization of this protocol is depicted in FIG. 7.\nMAP4343 was diluted in sesame oil, and then administered subcutaneously (s.c.) at the dose of 15 mg/kg during 24 days. The vehicle group received only the sesame oil (1 ml/kg) in the similar conditions.\nThe NOR task is a test of recognition memory based on the spontaneous preference of rats for novelty. The applied procedure was based on that previously described by Ennaceur and Delacour (1988). NOR task was performed at D21 of the treatment period (see FIG. 7). In a first session (habituation, 5 min), each rat was familiarized with two identical objects placed in the border of the open-field area (70×100×70 cm). In a second session performed 1 h after (novel object recognition, 5 min), one of the two familiar objects was replaced by a novel object. […] Results are given as exploratory time for the novel object and the total exploratory time."}},
  "data": [
    {"smiles": "CO[C@H]1CC[C@@]2(C)C(=CC[C@H]3[C@@H]4CC[C@H](C(C)=O)[C@@]4(C)CC[C@@H]32)C1", "note": "[MAP4343, 3β-methoxy-pregna-5-ene-20-one]", "values": [
      {"measurement": "in vitro affinity for the tested receptors", "setting": "[1]", "result": "no significant affinity for any tested receptor"},
      {"measurement": "neurite extension", "setting": "PC12 cells", "result": "enhance neurite extension"},
      {"measurement": "time spent with the novel object in NOR, change vs WKY receiving only vehicle", "setting": "Wistar Kyoto (WKY) rats; FIG. 8B", "result": "+58%"},
      {"measurement": "total exploratory time in NOR, change vs WKY receiving only vehicle", "setting": "Wistar Kyoto (WKY) rats; FIG. 8C", "result": "+41%"}
    ]}
  ]
}
